Measured values taken from patent publication USRE47689E1, “Compounds for treating spinal muscular atrophy” (PTC Therapeutics, Inc., priority 2011, dated 2019).
Like-named read-outs stand apart in the source and are kept apart here.

Assays:
[1] = system: SMN2 minigene (full length SMN2 minigene mRNA containing SMN2 exon 7); assay: SMN2 minigene mRNA splicing RT-qPCR assay in cultured cells; assay type: cell-based, human; details: Homo sapiens, HEK293-H, read-out: EC1.5x for production of full length SMN2 mRNA
Method in brief: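 HEK293H cells stably carrying the SMN2-A minigene treated 24 h at 37° C with compound (DMSO, 200× stock), then lysed. Multiplex RT-qPCR (SMN primers 0.4 μM final; 40 cycles) measures full-length exon 7-containing minigene mRNA, normalized to GAPDH and to vehicle; EC1.5x derived and binned by stars.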

Smn protein = Smn protein assay in cultured cells (SMN HTRF); assay type: cell-based, human; details: for EC1.5x (concentration giving 1.5-fold Smn protein increase): read-out: EC1.5x for Smn protein expression
Method in brief: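 Lysates in RIPA with protease inhibitors are incubated overnight at room temperature with HTRF anti-SMN antibodies. EC1.5x is derived from fold increase in ΔF over vehicle.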

[2] = HEK293H cells stably transfected with SMN2-A minigene, 24 hours, 7-point concentration curve, 1.5-fold relative to vehicle-treated cells
[3] = SMA Type 1 patient fibroblast cells (GM03813), 48 hours, 7-point concentration curve, SMN HTRF, concentration producing 1.5 times Smn protein vs DMSO vehicle control
[4] = SMA patient fibroblast cells, 48 hours, 7-point concentration data, fold increase relative to vehicle control (SMN HTRF)

SMILES	EC (1.5-fold) [1, 2]	melting point	EC1.5x (concentration giving 1.5-fold Smn protein increase) (Smn protein; [3])	maximum fold (Fold) increase of Smn protein (Smn protein; [4])	EC (1.5-fold) ([1]; 24 h)	maximum fold (Fold) increase of Smn protein (Smn protein)	EC1.5x (concentration giving 1.5-fold Smn protein increase) (Smn protein)
Cc1cn2cc(-c3cc4ccc(N5C[C@@H](C)N[C@@H](C)C5)cc4oc3=O)nc2s1 [Compound 152, 7-[(3R,5S)-3,5-dimethylpiperazin-1-yl]-3-(2-methylimidazo[2,1-b][1,3]thiazol-6-yl)-2H-chromen-2-one]	< 0.1 µM	210 to 212 °C	1000 to 3000 nM	*** (fold increase between >1.35 and ≤1.5)			
Cc1cn2cc(-c3cc4ccc(N5CCCN(C)CC5)cc4oc3=O)nc2s1 [Compound 153, 7-(4-methyl-1,4-diazepan-1-yl)-3-(2-methylimidazo[2,1-b][1,3]thiazol-6-yl)-2H-chromen-2-one]	1 to 3 µM	179 to 184 °C		*** (fold increase between >1.35 and ≤1.5)			
Cc1cn2cc(-c3cc4ccc(N5CCC(N(C)C)C5)cc4oc3=O)nc2s1 (stereo not drawn) [Compound 154, 7-[3-(dimethylamino)pyrrolidin-1-yl]-3-(2-methylimidazo[2,1-b][1,3]thiazol-6-yl)-2H-chromen-2-one]	3 to 30 µM	180 to 183 °C		* (maximum fold increase of ≤1.2)			
O=c1oc2c(F)c(N3CCNCC3)ccc2cc1-c1ccccn1 [Compound 155, 8-fluoro-7-(piperazin-1-yl)-3-(pyridin-2-yl)-2H-chromen-2-one]		147 to 153 °C		* (maximum fold increase of ≤1.2)	3 to 30 µM		
Cc1ccc2nc(-c3cc4ccc(N5CCNCC5)c(F)c4oc3=O)cn2c1 [Compound 156, 8-fluoro-3-(6-methylimidazo[1,2-a]pyridin-2-yl)-7-(piperazin-1-yl)-2H-chromen-2-one]	1 to 3 µM	313 to 319 °C		** (fold increase between >1.2 and ≤1.35)			
O=c1oc2cc(N3CCNCC3)c(F)cc2cc1-c1nc2ccccc2s1 [Compound 157, 3-(1,3-benzothiazol-2-yl)-6-fluoro-7-(piperazin-1-yl)-2H-chromen-2-one]		255 to 260 °C		* (maximum fold increase of ≤1.2)	0.1 to 0.3 µM		
Cc1ccc2nc(-c3cc4cc(F)c(N5CCNCC5)cc4oc3=O)cn2c1 [Compound 158, 6-fluoro-3-(6-methylimidazo[1,2-a]pyridin-2-yl)-7-(piperazin-1-yl)-2H-chromen-2-one]	1 to 3 µM	245 to 250 °C		** (fold increase between >1.2 and ≤1.35)			
O=c1oc2cc(N3CCNCC3)cc(F)c2cc1-c1nc2ccccc2o1 [Compound 159, 3-(1,3-benzoxazol-2-yl)-5-fluoro-7-(piperazin-1-yl)-2H-chromen-2-one]	0.3 to 1 µM	245 to 250 °C		*** (fold increase between >1.35 and ≤1.5)			
O=c1oc2cc(N3CCNCC3)cc(F)c2cc1-c1ccccn1 [Compound 161, 5-fluoro-7-(piperazin-1-yl)-3-(pyridin-2-yl)-2H-chromen-2-one]		221 to 225 °C			1 to 3 µM	*** (key: *: maximum fold increase of ≤1.2; **: fold increase between >1.2 and ≤1.35; ***: fold increase between >1.35 and ≤1.5; ****: fold increase between >1.5 and ≤1.65; *****: fold increase >1.65)	3000 to 10000 nM
Cc1ccc(-c2cc3ccc(N4CCNCC4)cc3oc2=O)cn1 [Compound 163, 3-(6-methylpyridin-3-yl)-7-(piperazin-1-yl)-2H-chromen-2-one]		148 to 150 °C		* (maximum fold increase of ≤1.2)	3 to 30 µM		
Cc1ccc(-c2cc3ccc(N4CCN(C)CC4)cc3oc2=O)cn1 [Compound 164, 7-(4-methylpiperazin-1-yl)-3-(6-methylpyridin-3-yl)-2H-chromen-2-one]	1 to 3 µM	158 to 160 °C		* (maximum fold increase of ≤1.2)			
COc1cc(-c2cc3ccc(N4CCN(C)CC4)cc3oc2=O)ccn1 [Compound 165, 3-(2-methoxypyridin-4-yl)-7-(4-methylpiperazin-1-yl)-2H-chromen-2-one]	3 to 30 µM	169 to 171 °C		** (fold increase between >1.2 and ≤1.35)			
C[C@@H]1CN(c2ccc3cc(-c4cn5ccsc5n4)c(=O)oc3c2)C[C@H](C)N1 [Compound 167, 7-[(3R,5S)-3,5-dimethylpiperazin-1-yl]-3-(imidazo[2,1-b][1,3]thiazol-6-yl)-2H-chromen-2-one]	0.3 to 1 µM	263 to 265 °C		** (fold increase between >1.2 and ≤1.35)			
C[C@@H]1CN(c2ccc3cc(-c4cn5ccc(C(F)(F)F)cc5n4)c(=O)oc3c2)C[C@H](C)N1C [Compound 168, 3-[7-(trifluoromethyl)imidazo[1,2-a]pyridin-2-yl]-7-[(3R,5S)-3,4,5-trimethylpiperazin-1-yl]-2H-chromen-2-one]	1 to 3 µM	267 to 275 °C		* (maximum fold increase of ≤1.2)			
C[C@@H]1CN(c2ccc3cc(-c4cn5cccnc5n4)c(=O)oc3c2)CCN1 [Compound 169, 3-(imidazo[1,2-a]pyrimidin-2-yl)-7-[(3R)-3-methylpiperazin-1-yl]-2H-chromen-2-one]	0.3 to 1 µM	285 to 287 °C	1000 to 3000 nM	*** (fold increase between >1.35 and ≤1.5)			
C[C@H]1CN(c2ccc3cc(-c4cn5cccnc5n4)c(=O)oc3c2)CCN1 [Compound 170, 3-(imidazo[1,2-a]pyrimidin-2-yl)-7-[(3S)-3-methylpiperazin-1-yl]-2H-chromen-2-one]	0.3 to 1 µM	282 to 285 °C		** (fold increase between >1.2 and ≤1.35)			
Cc1ccc2nc(-c3cc4ccc(N5C[C@@H]6C[C@H]5CN6)cc4oc3=O)cn2c1 [Compound 173, 7-[(1S,4S)-2,5-diazabicyclo[2.2.1]hept-2-yl]-3-(6-methylimidazo[1,2-a]pyridin-2-yl)-2H-chromen-2-one]	0.3 to 1 µM	212 to 215 °C		** (fold increase between >1.2 and ≤1.35)			
Cc1ccc2nc(-c3cc4ccc(N5C[C@@H](C)N[C@@H](C)C5)cc4oc3=O)cn2c1 [Compound 174, 7-[(3R,5S)-3,5-dimethylpiperazin-1-yl]-3-(6-methylimidazo[1,2-a]pyridin-2-yl)-2H-chromen-2-one]	< 0.1 µM	235 to 237 °C		*** (fold increase between >1.35 and ≤1.5)			
Cc1ccc2nc(-c3cc4ccc(N(C)CCN(C)C)cc4oc3=O)cn2c1 [Compound 175, 7-{[2-(dimethylamino)ethyl](methyl)amino}-3-(6-methylimidazo[1,2-a]pyridin-2-yl)-2H-chromen-2-one]	3 to 30 µM	140 to 180 °C (dec.)		* (maximum fold increase of ≤1.2)			
Cc1ccc2nc(-c3cc4ccc(N5CCCNCC5)cc4oc3=O)cn2c1 [Compound 176, 7-(1,4-diazepan-1-yl)-3-(6-methylimidazo[1,2-a]pyridin-2-yl)-2H-chromen-2-one]	1 to 3 µM	218 to 220 °C		* (maximum fold increase of ≤1.2)			
Cc1ccc2nc(-c3cc4ccc(N5CC[C@H](NC(=O)OC(C)(C)C)C5)cc4oc3=O)cn2c1 [Compound 177, tert-butyl {(3S)-1-[3-(6-methylimidazo[1,2-a]pyridin-2-yl)-2-oxo-2H-chromen-7-yl]pyrrolidin-3-yl}carbamate]	3 to 30 µM	225 to 230 °C		* (maximum fold increase of ≤1.2)			
CCN1CCN(c2ccc3cc(-c4cn5c(C)csc5n4)c(=O)oc3c2)CC1 [Compound 178, 7-(4-ethylpiperazin-1-yl)-3-(3-methylimidazo[2,1-b][1,3]thiazol-6-yl)-2H-chromen-2-one]	3 to 30 µM	178 to 180 °C		* (maximum fold increase of ≤1.2)			
Cc1csc2nc(-c3cc4ccc(N5CCCN(C)CC5)cc4oc3=O)cn12 [Compound 179, 7-(4-methyl-1,4-diazepan-1-yl)-3-(3-methylimidazo[2,1-b][1,3]thiazol-6-yl)-2H-chromen-2-one]	1 to 3 µM	182 to 185 °C		*** (fold increase between >1.35 and ≤1.5)			
O=c1oc2cc(N3CCNCC3)ccc2cc1-c1ccnc(Cl)c1 [Compound 180, 3-(2-chloropyridin-4-yl)-7-(piperazin-1-yl)-2H-chromen-2-one]		190 to 192 °C		* (maximum fold increase of ≤1.2)	< 0.1 µM		
CN1CCC(N(C)c2ccc3cc(-c4cn5cccnc5n4)c(=O)oc3c2)C1 (stereo not drawn) [Compound 181, 3-(imidazo[1,2-a]pyrimidin-2-yl)-7-[methyl(1-methylpyrrolidin-3-yl)amino]-2H-chromen-2-one]	< 0.1 µM	215 to 217 °C		** (fold increase between >1.2 and ≤1.35)			
